pIC50: −log10 of the molar value. Several values for one entry are separate records, joined by “and”; a condition that tells them apart may be missing. Identical values can stand only once.
Tested on: 653999-131-R-J2-PDC complex spheroid viability
Assay: Anticancer human tumor 653999-131-R-J2-PDC patient-derived lung adenocarcinoma cell line growth inhibition
Conditions: for viability, T/C: stronger effect = lower value
Summary of the method: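 Complex spheroids of tumor cells with HUVEC and human MSCs, exposed to iadademstat combined with other agents. Each agent tested in half-log steps from near clinical Cmax (else 10 microM top), DMSO ≤0.25%.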

[1] = curve of first compound, second compound 0.1 µM
[2] = curve of first compound, second compound 0.316 µM
[3] = curve of first compound, second compound 1 µM
[4] = curve of first compound, second compound 3.16 µM
[5] = curve of first compound, second compound 10 µM
[6] = second compound 0.1 µM, first compound 0.0316 µM
[7] = second compound 0.1 µM, first compound 0.1 µM
[8] = second compound 0.316 µM, first compound 0.0316 µM
[9] = second compound 0.316 µM, first compound 0.1 µM
[10] = second compound 1 µM, first compound 0.0316 µM
[11] = second compound 1 µM, first compound 0.1 µM
[12] = second compound 3.16 µM, first compound 0.0316 µM
[13] = second compound 3.16 µM, first compound 0.1 µM
[14] = second compound 10 µM, first compound 0.0316 µM
[15] = second compound 10 µM, first compound 0.1 µM
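Further: spheroids exposed to agents for seven days before readout.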

## CC(C)CC(NC(=O)CNC(=O)c1cc(Cl)ccc1Cl)B1OC(=O)CC(CC(=O)O)(C(=O)O)O1 (configuration not stated) + NC1CCC(NC2CC2c2ccccc2)CC1
[1]
  pIC50: 8.01
[2]
  pIC50: 7.86
[3]
  pIC50: 7.96
[4]
  pIC50: 7.95
[5]
  pIC50: 7.94
Second compound 0.1 µM, first compound 0.000316 µM
  viability, T/C: 98.5%
Second compound 0.1 µM, first compound 0.001 µM
  viability, T/C: 102%
Second compound 0.1 µM, first compound 0.00316 µM
  viability, T/C: 106%
Second compound 0.1 µM, first compound 0.01 µM
  viability, T/C: 48.4%
[6]
  viability, T/C: 28.5%
[7]
  viability, T/C: 10.7%
Second compound 0.316 µM, first compound 0.000316 µM
  viability, T/C: 80.7%
Second compound 0.316 µM, first compound 0.001 µM
  viability, T/C: 102%
Second compound 0.316 µM, first compound 0.00316 µM
  viability, T/C: 99%
Second compound 0.316 µM, first compound 0.01 µM
  viability, T/C: 60.4%
[8]
  viability, T/C: 21.9%
[9]
  viability, T/C: 8.68%
Second compound 1 µM, first compound 0.000316 µM
  viability, T/C: 87.8%
Second compound 1 µM, first compound 0.001 µM
  viability, T/C: 90.5%
Second compound 1 µM, first compound 0.00316 µM
  viability, T/C: 95.8%
Second compound 1 µM, first compound 0.01 µM
  viability, T/C: 52.7%
[10]
  viability, T/C: 19.4%
[11]
  viability, T/C: 10.1%
Second compound 3.16 µM, first compound 0.000316 µM
  viability, T/C: 99.1%
Second compound 3.16 µM, first compound 0.001 µM
  viability, T/C: 85.4%
Second compound 3.16 µM, first compound 0.00316 µM
  viability, T/C: 106%
Second compound 3.16 µM, first compound 0.01 µM
  viability, T/C: 53.1%
[12]
  viability, T/C: 26.5%
[13]
  viability, T/C: 9.89%
Second compound 10 µM, first compound 0.000316 µM
  viability, T/C: 98.2%
Second compound 10 µM, first compound 0.001 µM
  viability, T/C: 104%
Second compound 10 µM, first compound 0.00316 µM
  viability, T/C: 122%
Second compound 10 µM, first compound 0.01 µM
  viability, T/C: 55.4%
[14]
  viability, T/C: 18.4%
[15]
  viability, T/C: 5%

## COc1ccc([C@@H](O)c2cc(-c3ncnc4cc(N5CCOCC5)ccc34)c(F)cc2Cl)nn1 + NC1CC1c1ccc(-c2cccc(O)c2)cc1
[1]
  pIC50: 5.55
[2]
  pIC50: 5.90
[3]
  pIC50: 6.01
[4]
  pIC50: 5.95
[5]
  pIC50: 6.01
[6]
  viability, T/C: 79.2%
[7]
  viability, T/C: 84.6%
Second compound 0.1 µM, first compound 0.316 µM
  viability, T/C: 72.1%
Second compound 0.1 µM, first compound 1 µM
  viability, T/C: 55%
Second compound 0.1 µM, first compound 3.16 µM
  viability, T/C: 54.1%
Second compound 0.1 µM, first compound 10 µM
  viability, T/C: 28.5%
[8]
  viability, T/C: 74.1%
[9]
  viability, T/C: 86.5%
Second compound 0.316 µM, first compound 0.316 µM
  viability, T/C: 65.8%
Second compound 0.316 µM, first compound 1 µM
  viability, T/C: 51.1%
Second compound 0.316 µM, first compound 3.16 µM
  viability, T/C: 40.7%
Second compound 0.316 µM, first compound 10 µM
  viability, T/C: 26.5%
[10]
  viability, T/C: 85.6%
[11]
  viability, T/C: 74.3%
Second compound 1 µM, first compound 0.316 µM
  viability, T/C: 70.2%
Second compound 1 µM, first compound 1 µM
  viability, T/C: 49.3%
Second compound 1 µM, first compound 3.16 µM
  viability, T/C: 31.9%
Second compound 1 µM, first compound 10 µM
  viability, T/C: 24.4%
[12]
  viability, T/C: 77.4%
[13]
  viability, T/C: 71.5%
Second compound 3.16 µM, first compound 0.316 µM
  viability, T/C: 63.2%
Second compound 3.16 µM, first compound 1 µM
  viability, T/C: 49.5%
Second compound 3.16 µM, first compound 3.16 µM
  viability, T/C: 39.4%
Second compound 3.16 µM, first compound 10 µM
  viability, T/C: 22.6%
[14]
  viability, T/C: 71.2%
[15]
  viability, T/C: 70.6%
Second compound 10 µM, first compound 0.316 µM
  viability, T/C: 58.2%
Second compound 10 µM, first compound 1 µM
  viability, T/C: 53.3%
Second compound 10 µM, first compound 3.16 µM
  viability, T/C: 33%
Second compound 10 µM, first compound 10 µM
  viability, T/C: 26.1%

## Nc1ncn(C2CC(O)C(CO)S2)c(=O)n1 (configuration not stated)
Compound 0.000949 µM
  viability, T/C: 96% and 102%
Compound 0.003 µM
  viability, T/C: 96.2% and 104%
Compound 0.00949 µM
  viability, T/C: 103% and 100%
Compound 0.03 µM
  viability, T/C: 76.5% and 87.5%
Compound 0.0949 µM
  viability, T/C: 76.6% and 87.2%
Compound 0.3 µM
  viability, T/C: 62.8% and 79.2%
Curve of compound
  pIC50: < 6.52

Source: PubChem BioAssay AID1918939 (Molecular Pharmacology Branch, DTP, NCI, 2023)
